Assay results taken from patent publication US10729130B2, “Nematicidal compositions and methods of using them” (Eden Research plc, priority 2004, dated 2020).
“And” between values parts separate entries of the source, which are not always exact repeats. Identical values can stand only once.

Columns and labels:
[1] = Terpene loading with surfactant, Tween-80:terpene ratio (free terpene score); format: physicochemical; design: key: Sl = slight; details: 250 mg/ml YP
Description: Samples were centrifuged at 14,000×g for 10 minutes and the appearance of free terpene floating on the aqueous layer was scored. The expression “free terpene” refers to the visible presence of terpene in the centrifuged reaction mixture. The absence of free terpene indicates complete absorption and encapsulation of the terpene by the YP. The highest volume of terpene absorbed by the YP, as evidenced by the absence of free terpene, was recorded as the maximal volume of absorbed terpene emulsion.

root-knot juveniles = assay: Effect of citral alone and citral and thymol on root-knot nematode juveniles; format: in vivo; details: average of 2 replicates
Description: This was labelled 2500 ppm and was diluted to provide test solutions at 500, 250, 125 and 62.5 ppm.
This was marked 2500 ppm and diluted to provide test solutions at 500, 250, 125 and 62.5 ppm.
Control—Water was used as the control.
Nematode juveniles were collected in water and 0.1 to 0.15 ml added to each well of a plastic assay plate. 1.0 ml of the test solutions was added to each well. Observations were made microscopically after 24 and 48 hours as described in Example 4. […] Living nematodes move in an undulating, wave-like motion.
The results of two experiments are provided below in Tables 7 and 8.

[2] = SAF Mannan loading of different terpenes and terpene mixtures; format: physicochemical; design: key to Free Terpene: +: “free terpene” refers to the visible presence of terpene in the centrifuged reaction mixture; −: The absence of free terpene indicates complete absorption of the terpene by the particles; key to Free Terpene: phase inversion remark: Inverted = Phase Inverted - solids floating on top - no free oil; W = white; Y = yellow; details: for Free Terpene: SAF Mannan 500 μl (250 mg/ml), overnight, room temperature; for Free Terpene: phase inversion remark: SAF Mannan 500 μl, second line of the Free Terpene cell; for Vol. loaded (maximal terpene loading in SAF Mannan): approximate maximal loading, volume of terpene emulsion absorbed by SAF Mannan; for % Loaded w/w (maximal terpene loading in SAF Mannan): ratio of amount of terpene loaded to amount of particle present (weight for weight)
Description: Increasing volumes of terpene emulsion were mixed with 250 mg/ml Baker's YP or 250 mg/ml SAF Mannan™ overnight at room temperature as shown in Tables 27 and 28. Samples were centrifuged at 14,000×g for 10 minutes and the appearance of free terpene floating on the aqueous layer was scored. The highest volume of terpene emulsion absorbed by Baker's YP or SAF Mannan™ as evidenced by the absence of free terpene was recorded as the volume of absorbed terpene emulsion. Colour of encapsulated terpenes in the pellet was recorded.
Percentage loaded represents a ratio of the amount of terpene loaded to the amount of particle present (weight for weight).

[3] = Screen of commercially available particles for terpene absorption (free terpene score); format: physicochemical; design: key: +: “free terpene” refers to the visible presence of terpene in the centrifuged reaction mixture; −: The absence of free terpene indicates complete absorption of the terpene by the particles; details: overnight
Description: The following protocol was performed to analyse the loading properties of different types of particles. The particles studied were Baker's Yeast Particles (Sigma Chemical Corp., St. Louis, Mo.), Nutrex™ Walls (Sensient Technologies, Milwaukee, Wis.), SAF-Mannan™ (SAF Agri, Minneapolis, Minn.), Nutricept Walls™ (Nutricepts Inc., Burnsville, Minn.), Levacan™ (Savory Systems International, Inc., Branchburg, N.J.) and WGP™ (Alpha-beta Technology, Inc. Worcester, Mass.).
The YP suspensions were prepared as follows: • Baker's yeast particle suspension (YP) was prepared by mixing 250 mg YP/ml 1% Tween 80. • Nutrex suspension was prepared by mixing 163 mg Nutrex YGP/ml 1% Tween 80. • SAF Mannan suspension was prepared by mixing 234 mg Biospringer YGP/ml 1% Tween 80. • Nutricepts suspension was prepared by mixing 99 mg Nutricepts YGP/ml 1% Tween 80. • Levacan suspension was prepared by mixing 217 mg Lev YGP/ml 1% Tween 80. • WGP suspension was prepared by mixing 121 mg WGP YGP/ml 1% Tween 80.
The packed volume of the above particles is identical which means that equal numbers of particles were assayed.
Loading reactions were set up as shown in Table 25 and left to incubate overnight. Samples were centrifuged at 14,000×g for 10 minutes and the appearance of free terpene floating on the aqueous layer and the color of the encapsulated terpenes in the pellet was scored. The highest volume of terpene absorbed by particles as evidenced by the absence of free terpene was recorded as the volume of absorbed terpene emulsion.

[4] = Maximal terpene loading at high Baker's yeast particle levels (free terpene score); format: physicochemical; design: key to Free Terpene: +: “free terpene” refers to the visible presence of terpene in the centrifuged reaction mixture; −: The absence of free terpene indicates complete absorption of the terpene by the particles; details: for terpene emulsion absorbed and encapsulated per 125 mg of YP: Baker's YP 250 mg/ml; for Free Terpene: 500 μl 250 mg/ml YP
Description: Samples were centrifuged at 14,000×g for 10 minutes and the appearance of free terpene floating on the aqueous layer was scored. The expression “free terpene” refers to the visible presence of terpene in the centrifuged reaction mixture. The absence of free terpene indicates complete absorption of the terpene by the YP. The highest volume of terpene absorbed by the YP, as evidenced by the absence of free terpene, was recorded as the maximal volume of absorbed terpene emulsion.

root-knot nematodes = assay: Nematicidal activity of citral on root-knot nematodes (selectivity experiment); details: 250 ppm
Description: Living saprophagus nematodes move rapidly in water. The control used was the nematodes in water alone.
The figures given are for the percentage of nematodes found to be dead upon microscopic examination and are the average of 2 replicates.

[5] = terpene emulsion vol 15, 1% Tween-80 485 μl
[6] = terpene emulsion vol 37.5, 1% Tween-80 462.5 μl
[7] = terpene emulsion vol 75, 1% Tween-80 425 μl
[8] = terpene emulsion vol 112.5, 1% Tween-80 387.5 μl
[9] = terpene emulsion vol 450, 1% Tween-80 50 μl
[10] = Baker's 250 mg/ml, emulsion 125 μl L-carvone or 100 μl Citral
[11] = Levacan 217 mg/ml, emulsion 125 μl L-carvone or 100 μl Citral
[12] = Nutrex 163 mg/ml, emulsion 125 μl L-carvone or 100 μl Citral
[13] = Nutricepts 99 mg/ml, emulsion 125 μl L-carvone or 100 μl Citral
[14] = SAF Mannan 234 mg/ml, emulsion 125 μl L-carvone or 100 μl Citral
[15] = WGP 121 mg/ml, emulsion 125 μl L-carvone or 100 μl Citral
[16] = no particle, emulsion 125 μl L-carvone or 100 μl Citral in 1% Tween 80
[17] = emulsion 15 μl, 1% Tween-80 485 μl
[18] = emulsion 37.5 μl, 1% Tween-80 462.5 μl
[19] = emulsion 75 μl, 1% Tween-80 425 μl
[20] = emulsion 112.5 μl, 1% Tween-80 387.5 μl
[21] = emulsion 150 μl, 1% Tween-80 350 μl
[22] = emulsion 225 μl, 1% Tween-80 275 μl
[23] = emulsion 450 μl, 1% Tween-80 50 μl

Row | Compound | Free Terpene [2, 5] | Free Terpene [2, 6] | Free Terpene [2, 7] | Free Terpene [2, 8] | Free Terpene [2, 9] | Vol. loaded (maximal terpene loading in SAF Mannan) [2] | % Loaded w/w (maximal terpene loading in SAF Mannan) [2] | Free Terpene [3, 10] | Free Terpene [3, 11] | Free Terpene [3, 12] | Free Terpene [3, 13] | Free Terpene [3, 14] | Free Terpene [3, 15] | Free Terpene [3, 16] | terpene emulsion absorbed and encapsulated per 125 mg of YP [4] | Free Terpene [4, 17] | Free Terpene [4, 18] | Free Terpene [4, 19] | Free Terpene [4, 20] | Free Terpene [4, 21] | also measured
1 | CC(C)=CCCC(C)=CC=O [Citral, citral] | − | − | − | − | + | 150 µL | 133% w/w | − | + | − | + | − | + | + | at least 75 μl | − | − | − | Sl+ | + | Free Terpene ([1]; Citral emulsion 113 μl, 10% Tween-80 33 μl): Sl; Free Terpene ([1]; Citral emulsion 113 μl, 10% Tween-80 100 μl): Sl; percentage of nematodes dead (root-knot juveniles; Table 7 experiment, 125 ppm, 24 h): 100%; percentage of nematodes dead (root-knot juveniles; Table 7 experiment, 125 ppm, 48 h): 24%; percentage of nematodes dead (root-knot juveniles; Table 7 experiment, 250 ppm, 24 h): 100%; percentage of nematodes dead (root-knot juveniles; Table 7 experiment, 250 ppm, 48 h): 91%; percentage of nematodes dead (root-knot juveniles; Table 7 experiment, 500 ppm, 24 h): 98%; percentage of nematodes dead (root-knot juveniles; Table 7 experiment, 500 ppm, 48 h): 97%; percentage of nematodes dead (root-knot juveniles; Table 8 experiment, 62.5 ppm, 24 h): 98%; percentage of nematodes dead (root-knot juveniles; Table 8 experiment, 125 ppm, 24 h): 94%; percentage of nematodes dead (root-knot juveniles; Table 8 experiment, 250 ppm, 24 h): 94%; Free Terpene ([2]; terpene emulsion vol 225, 1% Tween-80 275 μl): +; Free Terpene: phase inversion remark ([2]; terpene emulsion vol 150): Inverted; Free Terpene: phase inversion remark ([2]; terpene emulsion vol 225): Inverted; Free Terpene: phase inversion remark ([2]; terpene emulsion vol 450): Inverted; Free Terpene [4, 22]: +; Free Terpene [4, 23]: +; % dead (root-knot nematodes; 24 h): 87% and 88%; % dead (root-knot nematodes; 48 h): 100%
2 | L-carvone | − | − | − | − | + | 112.5 µL | 100% w/w | − | + | − | + | − | + | + | at least 112.5 μl | − | − | − | − | Sl+ | Free Terpene ([1]; L-carvone emulsion 150 μl, 10% Tween-80 0 μl): Sl; Free Terpene ([1]; L-carvone emulsion 150 μl, 10% Tween-80 5 μl): Sl; Free Terpene ([1]; L-carvone emulsion 150 μl, 10% Tween-80 10 μl): Sl; Free Terpene ([1]; L-carvone emulsion 150 μl, 10% Tween-80 33 μl): Sl; Free Terpene [4, 22]: +; Free Terpene [4, 23]: +
